Measured values taken from PubChem BioAssay AID274 (DTP/NCI, 2004).
Where “and” joins values, the source holds several entries; their conditions need not be identical. Equal entries are not always repeated. Inconclusive results and toxic doses are left out. Numbered stars: 1 amine (or outer) side, 2 acyl side, 3 side chain; on linkers, the order of the positions; unused ones are H or OH. Bridge positions count the residues as written; N and C are the ends. Square brackets hold non-standard residues; d marks the D form. Peptide text beside a SMILES is read from it. I, II: the chains in the order shown. * marks the point of attachment. Actinocin(1to9) = Cc1c2oc3c(C)ccc(C(=O)[*:2])c3nc-2c(C(=O)[*:1])c(N)c1=O; Trt = c1ccc(C(c2ccccc2)(c2ccccc2)*)cc1; NMeV = CN[CH](C(=O)O)C(C)C; Cbz = O=C(OCc1ccccc1)*; Aze = O=C(O)[CH]1CCN1; Sar = CNCC(=O)O

Tested on: BDF1 mice, Lewis lung carcinoma iv, survival T/C
Experiment: NCI In Vivo Anticancer Drug Screen. Data for tumor model Lewis Lung Carcinoma (intravenous) in B6D2F1 (BDF1) mice
Details: endpoint: median survival time, higher = longer survival
Procedure: The antitumor activity of compounds was measured in mice bearing transplantable tumors. Survival or tumor size were measured and the results are expressed as the measurement made in the treated group (T) divided by the measurement made in the vehicle treated control group (C). The tumor model used in this assay is Lewis Lung Carcinoma (intravenous) in B6D2F1 (BDF1) mice

[1] = dose: 0.75 mg/kg/injection, schedule: Q01DX009 (ip), vehicle: Klucel (hydroxypropylcellulose) (HPC)
[2] = dose: 1.5 mg/kg/injection, schedule: Q01DX009 (ip), vehicle: Klucel (hydroxypropylcellulose) (HPC)
[3] = dose: 12.0 mg/kg/injection, schedule: Q01DX009 (ip), vehicle: Klucel (hydroxypropylcellulose) (HPC)
[4] = dose: 100.0 mg/kg/injection, schedule: Q01DX009 (ip), vehicle: saline with Tween-80
[5] = dose: 200.0 mg/kg/injection, schedule: Q01DX009 (ip), vehicle: saline with Tween-80
[6] = dose: 1.0 mg/kg/injection, schedule: Q01DX009 (ip), vehicle: saline
[7] = dose: 2.0 mg/kg/injection, schedule: Q01DX009 (ip), vehicle: saline
[8] = dose: 16.0 mg/kg/injection, schedule: Q01DX009 (ip), vehicle: saline
[9] = dose: 12.5 mg/kg/injection, schedule: Q01DX009 (ip), vehicle: saline with Tween-80
[10] = dose: 25.0 mg/kg/injection, schedule: Q01DX009 (ip), vehicle: saline with Tween-80
[11] = dose: 50.0 mg/kg/injection, schedule: Q01DX009 (ip), vehicle: saline with Tween-80

O=P(O)(NCCCl)NCCCl
T/C (dose: 25.0 mg/kg/injection, schedule: Q01DX001 (ip), vehicle: saline with Tween-80): 111 % of control
T/C (dose: 50.0 mg/kg/injection, schedule: Q01DX001 (ip), vehicle: saline with Tween-80): 123 % of control
T/C (dose: 100.0 mg/kg/injection, schedule: Q01DX001 (ip), vehicle: saline with Tween-80): 208 % of control

C=C1C(C)C2C(Cc3ccccc3)NC(=O)C23C(OC(C)=O)/C=C/C(C)(O)CC(C)C/C=C/C3C1O (stereo unspecified)
T/C (dose: 0.37 mg/kg/injection, schedule: Q01DX009 (ip), vehicle: Klucel (hydroxypropylcellulose) (HPC)): 93 % of control
T/C (dose: 0.38 mg/kg/injection, schedule: Q01DX009 (ip), vehicle: Klucel (hydroxypropylcellulose) (HPC)): 107 % of control
T/C [1]: 102 % of control
T/C [2]: 96 % of control and 105 % of control
T/C (dose: 3.0 mg/kg/injection, schedule: Q01DX009 (ip), vehicle: Klucel (hydroxypropylcellulose) (HPC)): 104 % of control and 106 % of control
T/C (dose: 6.0 mg/kg/injection, schedule: Q01DX009 (ip), vehicle: Klucel (hydroxypropylcellulose) (HPC)): 101 % of control and 110 % of control
T/C [3]: 109 % of control

Nc1ncnc2nc[nH]c12
T/C (dose: 32.0 mg/kg/injection, schedule: Q01DX009 (ip), vehicle: Klucel (hydroxypropylcellulose) (HPC)): 99 % of control
T/C (dose: 64.0 mg/kg/injection, schedule: Q01DX009 (ip), vehicle: Klucel (hydroxypropylcellulose) (HPC)): 99 % of control
T/C (dose: 128.0 mg/kg/injection, schedule: Q01DX009 (ip), vehicle: Klucel (hydroxypropylcellulose) (HPC)): 98 % of control

O=c1[nH]c(=O)n(C2CC(O)C(CO)O2)cc1I (stereo unspecified)
T/C [4]: 99 % of control
T/C [5]: 108 % of control

CS(C)=O
T/C (dose: 1.5 grams/kg/injection, schedule: Q01DX009 (ip), vehicle: saline): 98 % of control
T/C (dose: 3.0 grams/kg/injection, schedule: Q01DX009 (ip), vehicle: saline): 96 % of control
T/C (dose: 6.0 grams/kg/injection, schedule: Q01DX009 (ip), vehicle: saline): 96 % of control

CC1OC(O[C@H]2/C=C/C=C/C=C/C=C/C=C/C=C/C=C/[C@H](C)[C@@H](O)[C@@H](C)[C@H](C)OC(=O)C[C@H](O)C[C@H](O)CC[C@@H](O)[C@H](O)C[C@H](O)C[C@]3(O)C[C@H](O)[C@@H](C(=O)O)[C@H](C2)O3)C(O)C(N)C1O (stereo partly specified)
T/C [6]: 105 % of control
T/C [7]: 109 % of control
T/C (dose: 8.0 mg/kg/injection, schedule: Q01DX009 (ip), vehicle: saline): 109 % of control
T/C [8]: 124 % of control

OC(C1CO1)C(O)C1CO1 (stereo unspecified)
T/C (dose: 0.25 mg/kg/injection, schedule: Q01DX009 (ip), vehicle: saline): 93 % of control
T/C (dose: 0.5 mg/kg/injection, schedule: Q01DX009 (ip), vehicle: saline): 94 % of control and 107 % of control
T/C [6]: 100 % of control and 113 % of control
T/C [7]: 95 % of control
T/C (dose: 4.0 mg/kg/injection, schedule: Q01DX009 (ip), vehicle: saline): 121 % of control

CCOC(=O)C(N)CSC(=O)NC (stereo unspecified)
T/C (dose: 25.0 mg/kg/injection, schedule: Q01DX009 (ip), vehicle: saline): 105 % of control
T/C (dose: 50.0 mg/kg/injection, schedule: Q01DX009 (ip), vehicle: saline): 98 % of control
T/C (dose: 100.0 mg/kg/injection, schedule: Q01DX009 (ip), vehicle: saline): 96 % of control
T/C (dose: 200.0 mg/kg/injection, schedule: Q01DX009 (ip), vehicle: saline): 96 % of control
T/C (dose: 400.0 mg/kg/injection, schedule: Q01DX009 (ip), vehicle: saline): 113 % of control

CC(=O)O[C@@H]1CO[C@H]2O[C@H]3[C@@H](C(C=O)=C[C@H](O)[C@@H]4C5=C(C(C)C)CC[C@]5(C)CC[C@@]34C)[C@@]2(O)C1=O
T/C [1]: 96 % of control
T/C [2]: 107 % of control

CC1CCC(n2cnc3c(Cl)ncnc32)O1 (stereo unspecified)
T/C [3]: 100 % of control
T/C (dose: 25.0 mg/kg/injection, schedule: Q01DX009 (ip), vehicle: Klucel (hydroxypropylcellulose) (HPC)): 109 % of control
T/C (dose: 50.0 mg/kg/injection, schedule: Q01DX009 (ip), vehicle: Klucel (hydroxypropylcellulose) (HPC)): 98 % of control
T/C (dose: 100.0 mg/kg/injection, schedule: Q01DX009 (ip), vehicle: Klucel (hydroxypropylcellulose) (HPC)): 104 % of control
T/C (dose: 200.0 mg/kg/injection, schedule: Q01DX009 (ip), vehicle: Klucel (hydroxypropylcellulose) (HPC)): 96 % of control

Nc1cc(=O)[nH][nH]1
T/C [4]: 99 % of control
T/C [5]: 91 % of control
T/C (dose: 400.0 mg/kg/injection, schedule: Q01DX009 (ip), vehicle: saline with Tween-80): 95 % of control

Nc1ccn(C2OC(COP(=O)(O)O)C(O)C2O)c(=O)n1 (stereo unspecified)
T/C [8]: 121 % of control
T/C (dose: 32.0 mg/kg/injection, schedule: Q01DX009 (ip), vehicle: saline): 106 % of control

Cc1c2oc3c(C)ccc(C(=O)NC4C(=O)NC(C(C)C)C(=O)N5CCCC5C(=O)N(C)CC(=O)N(C)C(C(C)C)C(=O)OC4C)c3nc-2c(C(=O)NC2C(=O)NC(C(C)C)C(=O)N3CCC3C(=O)N(C)CC(=O)N(C)C(C(C)C)C(=O)OC2C)c(N)c1=O (stereo unspecified) (I: TV[Aze][Sar][NMeV] / II: TVP[Sar][NMeV]; ester I:1-I:C, II:1-II:C; linker I:N-II:N via Actinocin(1to9); configuration not given here)
T/C (dose: 37.5 micrograms/kg/injection, schedule: Q01DX009 (ip), vehicle: saline + alcohol): 105 % of control
T/C (dose: 75.0 micrograms/kg/injection, schedule: Q01DX009 (ip), vehicle: saline + alcohol): 113 % of control
T/C (dose: 194.0 micrograms/kg/injection, schedule: Q04DX003 (ip), vehicle: saline + alcohol): 92 % of control
T/C (dose: 270.0 micrograms/kg/injection, schedule: Q04DX003 (ip), vehicle: saline + alcohol): 95 % of control
T/C (dose: 324.0 micrograms/kg/injection, schedule: Q04DX003 (ip), vehicle: saline + alcohol): 105 % of control
T/C (dose: 450.0 micrograms/kg/injection, schedule: Q04DX003 (ip), vehicle: saline + alcohol): 104 % of control
T/C (dose: 540.0 micrograms/kg/injection, schedule: Q04DX003 (ip), vehicle: saline + alcohol): 105 % of control
T/C (dose: 648.0 micrograms/kg/injection, schedule: Q01DX001 (ip), vehicle: saline + alcohol): 94 % of control
T/C (dose: 1080.0 micrograms/kg/injection, schedule: Q01DX001 (ip), vehicle: saline + alcohol): 94 % of control

CC[C@](C)(O)C(=O)O[C@H]1C(=O)O[C@@H]2C[C@H]3C(C)=CC(=O)[C@@H](O)[C@]3(C)[C@H]3[C@@]4(O)OC[C@]32[C@@H]1[C@@H](C)[C@H]4O
T/C (dose: 0.12 mg/kg/injection, schedule: Q01DX009 (ip), vehicle: steriod suspending solution): 92 % of control
T/C (dose: 0.25 mg/kg/injection, schedule: Q01DX009 (ip), vehicle: steriod suspending solution): 106 % of control
T/C (dose: 0.5 mg/kg/injection, schedule: Q01DX009 (ip), vehicle: steriod suspending solution): 99 % of control

COC(=O)C(CSC(c1ccccc1)(c1ccccc1)c1ccccc1)NC(=O)C(CC(N)=O)NC(=O)OCc1ccccc1 (stereo not drawn) (Cbz-Asn-Cys(Trt)-OMe; configuration not given here)
T/C (dose: 12.5 mg/kg/injection, schedule: Q01DX009 (ip), vehicle: distilled water + Tween-80): 103 % of control
T/C (dose: 25.0 mg/kg/injection, schedule: Q01DX009 (ip), vehicle: distilled water + Tween-80): 101 % of control
T/C (dose: 50.0 mg/kg/injection, schedule: Q01DX009 (ip), vehicle: distilled water + Tween-80): 89 % of control
T/C (dose: 100.0 mg/kg/injection, schedule: Q01DX009 (ip), vehicle: distilled water + Tween-80): 100 % of control
T/C (dose: 200.0 mg/kg/injection, schedule: Q01DX009 (ip), vehicle: distilled water + Tween-80): 105 % of control
T/C (dose: 400.0 mg/kg/injection, schedule: Q01DX009 (ip), vehicle: distilled water + Tween-80): 98 % of control

CCC1CN2C(=N1)c1ccccc1-c1cc(Cl)ccc12 (stereo unspecified)
T/C (dose: 3.13 mg/kg/injection, schedule: Q01DX009 (ip), vehicle: saline with Tween-80): 104 % of control and 118 % of control
T/C (dose: 6.25 mg/kg/injection, schedule: Q01DX009 (ip), vehicle: saline with Tween-80): 109 % of control and 90 % of control
T/C [9]: 100 % of control
T/C [10]: 94 % of control and 107 % of control
T/C [11]: 102 % of control and 122 % of control

Cc1cc2nc(Cc3nc4cc(C)c(C)cc4[nH]3)[nH]c2cc1C
T/C [9]: 95 % of control
T/C [10]: 109 % of control
T/C [11]: 97 % of control and 104 % of control
T/C [4]: 100 % of control
